# What was measured:
# [1] = Monitoring of the blood clearance profile of peptide-dye conjugates; assay type: in vivo; settings: rat ear; tail vein bolus; 830 nm after excitation at 780 nm
# From the text: A laser of appropriate wavelength for excitation of the dye chromophore was directed into one end of a fiber optic bundle and the other end was positioned a few millimeters from the ear of a rat. A second fiber optic bundle was also positioned near the same ear to detect the emitted fluorescent light and the other end was directed into the optics and electronics for data collection. An interference filter (IF) in the collection optics train was used to select emitted fluorescent light of the appropriate wavelength for the dye chromophore.
# Sprague-Dawley or Fischer 344 rats were used in these studies. The animals were anesthetized with urethane administered via intraperitoneal injection at a dose of 1.35 g/kg body weight. After the animals had achieved the desired plane of anesthesia, a 21 gauge butterfly with 12″ tubing was placed in the lateral tail vein of each animal and flushed with heparinized saline. The animals were placed onto a heating pad and kept warm throughout the entire study. The lobe of the left ear was affixed to a glass microscope slide to reduce movement and vibration.
# Incident laser light delivered from the fiber optic was centered on the affixed ear. Data acquisition was then initiated, and a background reading of fluorescence was obtained prior to administration of the test agent. For Cytates 1 or 2, the peptide-dye conjugate was administered to the animal through a bolus injection, typically 0.5 to 2.0 mL, in the lateral tail vein. This procedure was repeated with several dye-peptide conjugates in normal and tumor-bearing rats. Representative profiles as a method to monitor blood clearance of the peptide-dye conjugate in normal and tumor-bearing animals are shown in FIGS. 12 to 16. The data were analyzed using a standard sigma plot software program for a one-compartment model.
# [2] = test system: pancreatic acinar carcinoma expressing the SST-2 receptor (CA20948); assay: In vivo fluorescence imaging of rat pancreatic acinar carcinoma (CA20948); settings: for uptake (fluorescence) in tumor at 45 minutes: 45 minutes post injection, rats with CA20948 tumor
# From the text: (§1) A non-invasive in vivo fluorescence imaging apparatus was employed to assess the efficacy of contrast agents developed for tumor detection in animal models. A LaserMax Inc. laser diode of nominal wavelength 780 nm and nominal power of 40 mW was used. The detector was a Princeton Instruments model RTE/CCD-1317-K/2 CCD camera with a Rodenstock 10 mm F2 lens (stock #542.032.002.20) attached. An 830 nm interference […] (CVI Laser Corp., part # F10-830-4-2) was mounted in front of the CCD input lens such that only emitted fluorescent light from the contrast agent was imaged. Typically, an image of the animal was taken pre-injection of contrast agent. This image was subsequently subtracted (pixel by pixel) from the post injection images. However, the background subtraction was […] done once the animal had been removed from the sample area and returned at a later time for images taken several hours post injection.
# The imaging apparatus and the procedure used are described in Example 12. Rat pancreatic acinar carcinoma expressing the SST-2 receptor (CA20948) was induced by solid implant technique in the left flank area, and palpable masses were detected nine days post implant. The images obtained at 2 and 30 minutes post injection are shown in FIG. 7E-F. FIGS. 7E-F are images of a rat with an induced pancreatic acinar carcinoma (CA20948) expressing the SST-2 receptor imaged at two minutes (FIG. 7E) and 30 minutes (FIG. 7F) post injection.
# The imaging apparatus and the procedure used are described in Example 12, except that each animal received 500 μL of a 1.0 mg/mL solution of Cytate 1 solution of 25% dimethylsulfoxide in water.
# Rat pancreatic acinar carcinoma expressing the SST-2 receptor (CA20948) were induced by solid implant technique in the left flank area, and palpable masses were detected 24 days post implant. Images were obtained at various times post injection.
# (§2) Cytate 1 was evaluated in the CA20948 Lewis rat model. […] At 19 hours post injection the animal was again imaged (FIG. 9B). […] As a control, the organs were imaged again (FIG. 10A) and the image was compared with that of the same tissues in the uninjected rat (FIG. 10B).
# [3] = Imaging of individual organs removed from CA20948 tumor-bearing rat; assay type: in vivo
# Description: as §2
# Individual organs were removed and imaged.
# [4] = test system: Prostatic Carcinoma (Dunning R3327-H); assay: In vivo fluorescence imaging of prostatic carcinoma (R3327-H) tumors; set-up: species or system rat
# From the text: as §1
# The imaging apparatus and the procedure used are described as in Example 12. Prostate tumors (Dunning R3327-H) were induced in young male Copenhagen rats in the left flank area from a solid implant. These tumors grow very slowly and palpable masses were present 4-5 months post implant. FIGS. 7C-D are images of a rat with an induced prostatic carcinoma tumor (R3327-H) imaged at two minutes (FIG. 7C) and 30 minutes (FIG. 7D) post injection.
# [5] = test system: Pancreatic Ductal Adenocarcinoma (DSL 6A); assay: In vivo fluorescence imaging of pancreatic ductal adenocarcinoma (DSL 6A) tumors; set-up: species or system rat
# From the text: as §1
# DSL 6A tumors were induced in male Lewis rats in the left flank area by the introduction of material from a solid (donor) implant, and the tumors were palpable in approximately 14 days. The animals were anesthetized with xylazine:ketamine:acepromazine, 1.5:1.5:0.5 at 0.8 mL/kg via intramuscular injection. The area of the tumor (left flank) was shaved to expose the tumor and the surrounding surface area. […]
smiles,measurement,setting,value
"C[C@@H](O)[C@H](NC(=O)[C@@H]1CSSC[C@H](NC(=O)[C@@H](Cc2ccccc2)NC(=O)CCN2C(=CC=CC=CC=CC3=[N+](CCC(=O)O)c4ccc5ccccc5c4C3(C)C)C(C)(C)c3c2ccc2ccccc32)C(=O)N[C@@H](Cc2ccc(O)cc2)C(=O)N[C@H](Cc2c[nH]c3ccccc23)C(=O)N[C@@H](CCCCN)C(=O)N[C@@H]([C@@H](C)O)C(=O)N1)C(=O)O [Cytate 1, monoOctreotate-Bisethylcarboxymethylindocyanine dye]",blood fluorescence signal after bolus injection (rise),[1],rapidly increased to a peak value
same,blood fluorescence signal after peak (clearance from the bloodstream),[1],decayed as a function of time
same,uptake (fluorescence) in tumor at 45 minutes,[2],still intense
same,localization of dye in the tumor,"[2]; 90 minutes post injection, CA20948 Lewis rat model",strong localization
same,tumor visualization,"[2]; 19 hours post injection, CA20948 Lewis rat model",easily observed
same,time of maximal uptake into the tumor,"[2]; CA20948 tumor, 500 μL of 1.0 mg/mL in 25% dimethylsulfoxide in water",about five
same,persistence of dye fluorescence in the tumor,"[2]; CA20948 tumor, post-injection",remained intense in the tumor for several hours
same,uptake in adrenals,[3]; removed organ imaged,High uptake
same,uptake in heart,[3]; removed organ imaged,significantly lower uptake
same,uptake in liver,[3]; removed organ imaged,significantly lower uptake
same,uptake in pancreas,[3]; removed organ imaged,High uptake
same,uptake in spleen,[3]; removed organ imaged,significantly lower uptake
same,uptake in muscle,[3]; removed tissue imaged,significantly lower uptake
same,uptake in tumor tissue,[3]; removed tissue imaged,High uptake
"C[C@@H](O)[C@H](NC(=O)[C@@H]1CSSC[C@H](NC(=O)[C@@H](Cc2ccccc2)NC(=O)CCN2C(=CC=CC=CC=CC3=[N+](CCC(=O)N[C@H](Cc4ccccc4)C(=O)N[C@H]4CSSC[C@@H](C(=O)N[C@H](C(=O)O)[C@@H](C)O)NC(=O)[C@H]([C@@H](C)O)NC(=O)[C@H](CCCCN)NC(=O)[C@@H](Cc5c[nH]c6ccccc56)NC(=O)[C@H](Cc5ccc(O)cc5)NC4=O)c4ccc5ccccc5c4C3(C)C)C(C)(C)c3c2ccc2ccccc32)C(=O)N[C@@H](Cc2ccc(O)cc2)C(=O)N[C@H](Cc2c[nH]c3ccccc23)C(=O)N[C@@H](CCCCN)C(=O)N[C@@H]([C@@H](C)O)C(=O)N1)C(=O)O [Cytate 2, bis Octreotate-Bisethylcarboxymethylindocyanine dye]",blood fluorescence signal after bolus injection (rise),[1],rapidly increased to a peak value
same,blood fluorescence signal after peak (clearance from the bloodstream),[1],decayed as a function of time
"CC1(C)C(/C=C/C=C/C=C/C=C2\N(CCCCS(=O)(=O)O)c3ccc4ccccc4c3C2(C)C)=[N+](CCCCS(=O)(=O)[O-])c2ccc3ccccc3c21 [ICG, indocyanine green, reference compound]",dye intensity in the tumor,"[4]; 30 minutes post-ICG injection vs 2 minutes, R3327-H tumor, male Copenhagen rats",considerably diminished
same,perfusion of the agent into the tumor,"[4]; Dunning R3327H (prostate) tumor line, CCD camera",slow perfusion of the agent over time into the tumor
same,dye intensity in the tumor,"[2]; 30 minutes post-ICG injection vs 2 minutes, CA20948 tumor",considerably diminished and almost absent
same,uptake (fluorescence) in tumor at 45 minutes,[2],mostly cleared
same,perfusion of the agent into the tumor,"[2]; CA20948 (pancreatic) tumor line, absent after 30 minutes post injection",slight but transient perfusion
same,non-specific localization into the tumor line,"[2]; CA20948, compared to the other two tumor lines",no non-specific localization
same,dye intensity in the tumor,"[5]; 30 minutes post-ICG injection vs 2 minutes, DSL 6A tumor, male Lewis rats, 500 μL of 0.42 mg/mL in water, tail vein",considerably diminished
same,perfusion of the agent into the tumor,"[5]; DSL 6/A (pancreatic) tumor line, CCD camera",slow perfusion of the agent over time into the tumor
